Experimental data from patent US9643964B2, “3-(2-aminopyrimidin-4-yl)-5-(3-hydroxypropynyl)-1H-pyrrolo[2,3-C]pyridine derivatives as NIK inhibitors for the treatment of cancer” (Janssen Pharmaceutica NV, priority 2013, dated 2017).

Key:
L-363 cells = assay: Biological Assay C: antiproliferative activity on L-363 cells (CellTiter-Glo); assay type: cell-based, human; settings: 72 hr treatment, averaged values
Procedure: (§1) Determination of Antiproliferative Activity on LP-1, L-363 and JJN-3 Cells
(§2) All compounds tested were dissolved in DMSO and further dilutions were made in culture medium. Final DMSO concentration was 0.3% (v/v) in cell proliferation assays. Viability was assessed using CellTiter-Glo cell viability assay kit (Promega). The human LP-1, L-363 and JJN-3 cells (DSMZ) were cultured in RPMI 1640 medium supplemented with 2 mM L-glutamine, and 10% fetal calf serum (PAA). Cells were routinely kept as suspension cells at 37° C. in a humidified 5% CO2 atmosphere. Cells were passaged at a seeding density of 0.2×10^6/ml twice a week. Cells were seeded in black tissue culture treated 96-well plates (Perkin Elmer). Densities used for plating ranged from 2,000 to 6,000 cells per well in a total volume of 75 μl medium. After twenty four hours, drugs and/or solvents were added (25 μl) to a final volume of 100 μl. Following 72 hr of treatment plates were removed from the incubator and allowed to equilibrate to room temperature for approx 10 min. 100 μl CellTiter-Glo reagent was added to each well that was then covered (Perkin Elmer Topseal) and shaken on plate shaker for 10 min. Luminescence was measured on a HTS Topcount (Perkin Elmer). Within an experiment, the results for each treatment were the mean of 2 replicate wells. For initial screening purposes, compounds were tested using a 9 point dilution curve (serial 1:3 dilutions). For each experiment, controls (containing no drug) and a blank incubation (containing cells read at the time of compound addition) were run in parallel. The blank value was subtracted from all control and sample values. For each sample, the mean value for cell growth (in relative light units) was expressed as a percentage of the mean value for cell growth of the control.

LP-1 cells = assay: Biological Assay C: antiproliferative activity on LP-1 cells (CellTiter-Glo); assay type: cell-based, human; settings: 72 hr treatment, averaged values
Procedure: as §1, §2

[1] = target: Recombinant Human NF-kappaB-Inducing Kinase (NIK/MAP3K14) (Homo sapiens, UniProt Q99558); assay: Biological Assay A2: inhibition of auto-phosphorylation of recombinant human NIK/MAP3K14 (AlphaScreen); assay type: biochemical; settings: auto-phosphorylation; averaged over all measurements on all batches; read-out: αscreen IC50
Procedure: Inhibition of Auto-Phosphorylation of Recombinant Human NF-kappaB-Inducing Kinase (NIK/MAP3K14) Activity (AlphaScreen®)
NIK/MAP3K14 auto-phosphorylation activity was measured using the AlphaScreen® (αscreen) format (Perkin Elmer). All compounds tested were dissolved in dimethyl sulfoxide (DMSO) and further dilutions were made in assay buffer. Final DMSO concentration was 1% (v/v) in assays. Assay buffer was 50 mM Tris pH 7.5 containing 1 mM EGTA (ethylene glycol tetraacetic acid), 1 mM DTT (dithiothreitol), 0.1 mM Na3VO4, 5 mM MgCl2, 0.01% Tween 20. Assays were carried out in 384 well Alphaplates (Perkin Elmer). Incubations consisted of compound, 25 microM Adenosine-5′-triphosphate (ATP), and 0.2 nM NIK/MAP3K14. Incubations were initiated by addition of GST-tagged NIK/MAP3K14 enzyme, carried out for 1 h at 25° C. and terminated by addition of stop buffer containing anti-phospho-IKK Ser176/180 antibody. Protein A Acceptor and Glutathione-Donor beads were added before reading using an EnVision® Multilabel Plate Reader (Perkin Elmer). Signal obtained in the wells containing blank samples was subtracted from all other wells and IC50's were determined by fitting a sigmoidal curve to % inhibition of control versus Log10 compound concentration.

JJN-3 cells = assay: Biological Assay C: antiproliferative activity on JJN-3 cells (CellTiter-Glo); assay type: cell-based, human; settings: 72 hr treatment, averaged values
Procedure: as §1, §2

Sequence of Recombinant Human NF-kappaB-Inducing Kinase (NIK/MAP3K14) (Q99558 whole entry): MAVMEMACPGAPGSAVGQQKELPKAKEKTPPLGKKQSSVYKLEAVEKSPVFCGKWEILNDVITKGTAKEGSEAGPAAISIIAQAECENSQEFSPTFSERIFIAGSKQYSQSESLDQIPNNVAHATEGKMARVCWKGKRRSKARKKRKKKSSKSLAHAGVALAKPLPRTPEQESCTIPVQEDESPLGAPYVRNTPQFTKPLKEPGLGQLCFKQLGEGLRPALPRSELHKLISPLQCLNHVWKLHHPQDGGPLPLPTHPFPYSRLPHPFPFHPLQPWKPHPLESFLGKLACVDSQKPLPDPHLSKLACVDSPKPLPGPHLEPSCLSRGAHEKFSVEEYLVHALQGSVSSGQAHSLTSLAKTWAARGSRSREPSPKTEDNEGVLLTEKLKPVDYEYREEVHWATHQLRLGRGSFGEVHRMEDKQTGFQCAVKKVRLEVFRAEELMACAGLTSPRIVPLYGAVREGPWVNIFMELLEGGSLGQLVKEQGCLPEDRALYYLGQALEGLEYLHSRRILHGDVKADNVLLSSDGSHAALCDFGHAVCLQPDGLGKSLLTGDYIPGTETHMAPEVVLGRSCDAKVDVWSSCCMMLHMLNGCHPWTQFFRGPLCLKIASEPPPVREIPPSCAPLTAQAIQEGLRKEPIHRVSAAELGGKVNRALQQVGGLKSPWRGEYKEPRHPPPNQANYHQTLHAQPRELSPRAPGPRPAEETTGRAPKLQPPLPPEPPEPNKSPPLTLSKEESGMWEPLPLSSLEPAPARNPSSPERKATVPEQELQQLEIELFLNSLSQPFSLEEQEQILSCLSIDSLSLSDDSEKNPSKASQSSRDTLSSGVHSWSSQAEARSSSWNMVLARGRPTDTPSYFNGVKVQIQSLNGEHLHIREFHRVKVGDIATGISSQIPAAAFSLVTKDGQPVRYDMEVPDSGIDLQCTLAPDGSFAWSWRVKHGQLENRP

Row | Compound | EC50 (L-363 cells; Homo sapiens, L-363, 72 h) | EC50 (LP-1 cells; Homo sapiens, LP-1, 72 h) | IC50 [1] | EC50 (JJN-3 cells; Homo sapiens, JJN-3, 72 h) | EC50 (L-363 cells) | EC50 (LP-1 cells) | EC50 (JJN-3 cells)
1 | [2H]C([2H])([2H])C(O)(C#Cc1cc2c(-c3nc(N)ncc3F)cn(C3COC3)c2cn1)C1([2H])C([2H])([2H])C1([2H])[2H] (centres unmarked) [Compound 110] | 140 nM | 580 nM | 17 nM | 170 nM |  |  | 
2 | COCCn1cc(-c2ccnc(N)n2)c2cc(C#CC(C)(O)C3CCNCC3)ncc21 (centres unmarked) [Compound 115] | > 10000 nM | > 10000 nM | 4900 nM | > 10000 nM |  |  | 
3 | COCCN1CCC(n2cc(-c3nc(N)ncc3F)c3cc(C#CC(C)(O)C4CC4)ncc32)CC1 (centres unmarked) [Compound 126] |  |  | 140 nM |  | 280 nM | 640 nM | 270 nM
4 | CCN1CCOC(Cn2cc(-c3nc(N)ncc3F)c3cc(C#CC(C)(O)C4CC4)ncc32)C1 (centres unmarked) [Compound 127] | 190 nM | 420 nM | 180 nM | 240 nM |  |  | 
5 | COCC(C)n1cc(-c2nc(N)ncc2F)c2cc(C#CC(C)(O)C3CC3)ncc21 (centres unmarked) [Compound 128] | 120 nM | 310 nM | 76 nM | 130 nM |  |  | 
6 | CC1(Cn2cc(-c3nc(N)ncc3F)c3cc(C#CC(C)(O)C4CC4)ncc32)COC1 (centres unmarked) [Compound 129] | 150 nM | 920 nM | 23 nM | 210 nM |  |  | 
7 | CC(O)(C#Cc1cc2c(-c3nc(N)ncc3F)cn(CC3CCCO3)c2cn1)C1CC1 (centres unmarked) [Compound 130] | 190 nM | 640 nM | 28 nM | 300 nM |  |  | 
8 | CC(O)(C#Cc1cc2c(-c3nc(N)ncc3F)cn(C3CCOC3)c2cn1)C1CC1 (centres unmarked) [Compound 131] | 89 nM | 440 nM | 21 nM | 150 nM |  |  | 
9 | CC(O)(C#Cc1cc2c(-c3nc(N)ncc3F)c[nH]c2cn1)C1CC1 (centres unmarked) [Compound 132] | 30 nM | 410 nM | 6.5 nM | 77 nM |  |  | 
10 | Cc1nc(C#CC(C)(O)C2CC2)cc2c(-c3nc(N)ncc3F)cn(C3COC3)c12 (centres unmarked) [Compound 133] | 66 nM | 330 nM | 50 nM | 140 nM |  |  | 
11 | CN1CCN(C(=O)n2cc(-c3nc(N)ncc3F)c3cc(C#CC(C)(O)C4CC4)ncc32)CC1 (centres unmarked) [Compound 134] | 3000 nM | 24000 nM | 110 nM | 4100 nM |  |  | 
12 | CN1CC(n2cc(-c3nc(N)ncc3F)c3cc(C#CC(C)(O)C4CC4)ncc32)C1 (centres unmarked) [Compound 135] | 64 nM | 410 nM | 68 nM | 180 nM |  |  | 
13 | CCN1CC(n2cc(-c3nc(N)ncc3F)c3cc(C#CC(C)(O)C4CC4)ncc32)C1 (centres unmarked) [Compound 136] | 140 nM | 450 nM | 120 nM | 240 nM |  |  | 
14 | Nc1ncc(F)c(-c2cn(C3COC3)c3cnc(C#CC(O)(CF)C4CC4)cc23)n1 (centres unmarked) [Compound 137] | 380 nM | 1990 nM | 53 nM | 550 nM |  |  | 
15 | CCN1CCCC(n2cc(-c3nc(N)ncc3F)c3cc(C#CC(C)(O)C4CC4)ncc32)C1 (centres unmarked) [Compound 138] | 80 nM | 250 nM | 110 nM | 94 nM |  |  | 
16 | CCCN1CC(n2cc(-c3nc(N)ncc3F)c3cc(C#CC(C)(O)C4CC4)ncc32)C1 (centres unmarked) [Compound 139] | 160 nM | 340 nM | 98 nM | 220 nM |  |  | 
17 | CC(O)(C#Cc1cc2c(-c3nc(N)ncc3F)cn(C3CN(CC4CC4)C3)c2cn1)C1CC1 (centres unmarked) [Compound 140] | 140 nM | 320 nM | 100 nM | 170 nM |  |  | 
18 | CCN1CCC(n2cc(-c3nc(N)ncc3F)c3cc(C#CC(C)(O)C4CC4)ncc32)C1 (centres unmarked) [Compound 141] | 56 nM | 320 nM | 66 nM | 96 nM |  |  | 
19 | CC(O)(C#Cc1cc2c(-c3nc(N)ncc3F)cn(C3CN(C4CCCC4)C3)c2cn1)C1CC1 (centres unmarked) [Compound 142] | 190 nM | 410 nM | 210 nM | 150 nM |  |  | 
20 | CCOCCN1CC(n2cc(-c3nc(N)ncc3F)c3cc(C#CC(C)(O)C4CC4)ncc32)C1 (centres unmarked) [Compound 158] | 390 nM | 740 nM | 180 nM | 440 nM |  |  | 
21 | CC(C)N1CC(n2cc(-c3nc(N)ncc3F)c3cc(C#CC(C)(O)C4CC4)ncc32)C1 (centres unmarked) [Compound 159] | 180 nM | 320 nM | 270 nM | 230 nM |  |  | 
22 | [2H]C([2H])([2H])C(O)(C#Cc1cc2c(-c3nc(N)ncc3F)cn(C3CN(C4CC4)C3)c2cn1)C([2H])([2H])[2H] [Compound 160] | 93 nM | 210 nM | 82 nM | 110 nM |  |  | 
23 | CC(O)(C#Cc1cc2c(-c3nc(N)ncc3F)cn(C3CN(C4CC4)C3)c2cn1)CF (centres unmarked) [Compound 161] | 110 nM | 340 nM | 40 nM | 150 nM |  |  | 
24 | COCC(C)N1CC(n2cc(-c3nc(N)ncc3F)c3cc(C#CC(C)(O)C4CC4)ncc32)C1 (centres unmarked) [Compound 162] | 350 nM | 790 nM | 340 nM | 370 nM |  |  | 
25 | CC(O)(C#Cc1cc2c(-c3nc(N)ncc3F)cn(C3CCN(CCF)CC3)c2cn1)C1CC1 (centres unmarked) [Compound 163] | 59 nM | 110 nM | 73 nM | 110 nM |  |  | 
26 | CC(O)(C#Cc1cc2c(-c3ccnc(N)n3)cn(C3CCN(C4CC4)CC3)c2cn1)C1CC1 (centres unmarked) [Compound 164] | 270 nM | 680 nM | 89 nM | 390 nM |  |  | 
27 | CC(O)(C#Cc1cc2c(-c3nc(N)ncc3F)cn(C3CCN(CC4CC4)CC3)c2cn1)C1CC1 (centres unmarked) [Compound 165] | 200 nM | 460 nM | 46 nM | 220 nM |  |  | 
28 | CC(C)(O)C#Cc1cc2c(-c3nc(N)ncc3F)cn(C3CN(C4CC4)C3)c2cn1 [Compound 166] | 60 nM | 180 nM | 76 nM | 96 nM |  |  | 
29 | CC(O)(C#Cc1cc2c(-c3nc(N)ncc3F)cn(C3CCN(CCC(F)(F)F)CC3)c2cn1)C1CC1 (centres unmarked) [Compound 167] | 390 nM | 1000 nM | 58 nM | 390 nM |  |  | 
